Test results: patent publication US5698544A, “Cephem compound, process for producing the compound, and antimicrobial composition containing the same” (Otsuka Kagaku Kabushiki Kaisha, priority 1994, dated 1997)
In brackets after ≈: the same amount, converted by molar mass.

What was measured:
[1] = tested on: E. faecalis ATCC-21212; experiment: Agar plate dilution assay (MIC), E. faecalis ATCC-21212; assay type: cell-based; details: Enterococcus faecalis, ATCC21212, inoculum size 10^6 cells/ml
[2] = tested on: S. aureus FDA 209-P; experiment: Agar plate dilution assay (MIC), S. aureus FDA 209-P; assay type: cell-based; details: Staphylococcus aureus, FDA209, inoculum size 10^6 cells/ml
[3] = tested on: E. coli NIHJ JC-2; experiment: Agar plate dilution assay (MIC), E. coli NIHJ JC-2; assay type: cell-based; details: Escherichia coli, NIHJJC2, inoculum size 10^6 cells/ml
[4] = tested on: S. marcescens IFO-12648; experiment: Agar plate dilution assay (MIC), S. marcescens IFO-12648; assay type: cell-based; details: Serratia marcescens, IFO12648, inoculum size 10^6 cells/ml
[5] = tested on: MRSA 92-1044; experiment: Agar plate dilution assay (MIC), MRSA 92-1044; assay type: cell-based, methicillin-resistant Staphylococcus aureus; details: Staphylococcus aureus, inoculum size 10^6 cells/ml

Row | MIC [1] | MIC [2] | MIC [3] | MIC [4] | MIC [5] | SMILES
1 | 0.1 µg/mL | 0.1 µg/mL | 0.025 µg/mL | 0.1 µg/mL | 1.56 µg/mL | C[N+](C)(CC[n+]1ccc(SC=CC2=C(C(=O)O)N3C(=O)C(NC(=O)C(=NO)c4csc(N)n4)C3SC2)cc1)CC(N)=O (centres unmarked) [(c)]
2 | 0.2 µg/mL | 0.2 µg/mL | 0.025 µg/mL | 0.2 µg/mL | 1.56 µg/mL | CC(=O)C[N+](C)(C)CC[n+]1ccc(SC=CC2=C(C(=O)O)N3C(=O)C(NC(=O)C(=NO)c4csc(N)n4)C3SC2)cc1 (centres unmarked) [(d)]
3 | 0.1 µg/mL | 0.1 µg/mL | 0.05 µg/mL | 0.1 µg/mL | 1.56 µg/mL | C[N+](C)(CCO)CC[n+]1ccc(SC=CC2=C(C(=O)O)N3C(=O)C(NC(=O)C(=NO)c4csc(N)n4)C3SC2)cc1 (centres unmarked) [(e)]

The remaining lines, values behind:

Row | SMILES | MIC [1] | MIC [2] | MIC [3] | MIC [4] | MIC [5]
4 | C[N+](C)(C)CC[n+]1ccc(SC=CC2=C(C(=O)O)N3C(=O)C(NC(=O)C(=NOC4CCCC4)c4csc(N)n4)C3SC2)cc1 (centres unmarked) [(a)] | 0.39 µg/mL | 0.39 µg/mL | 0.39 µg/mL | 3.13 µg/mL | 6.25 µg/mL
5 | C[N+](C)(C)CC[n+]1ccc(SC=CC2=C(C(=O)O)N3C(=O)C(NC(=O)C(=NO)c4csc(N)n4)C3SC2)cc1 (centres unmarked) [(b)] | 0.1 µg/mL | 0.1 µg/mL | 0.05 µg/mL | 0.1 µg/mL | 1.56 µg/mL
6 | C[N+]1(CC[n+]2ccc(SC=CC3=C(C(=O)O)N4C(=O)C(NC(=O)C(=NO)c5csc(N)n5)C4SC3)cc2)CCOCC1 (centres unmarked) [(f)] | 0.2 µg/mL | 0.1 µg/mL | 0.025 µg/mL | 0.1 µg/mL | 1.56 µg/mL
7 | CO[C@@]1(NC(=O)CSC(F)F)C(=O)N2C(C(=O)O)=C(CSc3nnnn3CCO)CO[C@@H]21 [FMOX, flomoxef, reference compound] | 100 µg/mL (≈ 201 µM) | 0.2 µg/mL (≈ 0.403 µM) | 0.05 µg/mL (≈ 0.101 µM) | 0.2 µg/mL (≈ 0.403 µM) | > 100 µg/mL
